The test system of this assay is SARS-CoV-2 WT replicon in Huh7 cells. Kind of assay: microbe, parasite or virus in culture. It counts as cell-based. Conditions: Severe acute respiratory syndrome coronavirus 2, Huh-7, 24 h.

Some results are limits rather than exact numbers.

Consider `CC1(C)[C@@H]2[C@@H](C(=O)N[C@H](C#N)C[C@@H]3CCCNC3=O)N(C(=O)[C@@H](NC(=O)C(F)(F)F)C3CC3)C[C@@H]21` [Compound 377], for which the 50% effective concentration (EC50) – broadly, the concentration needed to bring the measured effect to its halfway point – is less than 2 µM. The compound `C[C@@H](OC1CC1)[C@H](NC(=O)C(F)(F)F)C(=O)N1C[C@H]2[C@@H]([C@H]1C(=O)N[C@H](C#N)C[C@@H]1CCCNC1=O)C2(C)C` [Compound 378] showed an EC50 of less than 2 µM.

(Values after patent US20240277795A1, “INHIBITORS OF CYSTEINE PROTEASES AND METHODS OF USE THEREOF” (Pardes Biosciences, Inc., priority 2021, published 2024).)
